# Results taken from patent publication US20250011368A1, “DLL3 TARGETING PEPTIDES AND CONSTRUCTS THEREOF” (MARIANA ONCOLOGY INC., priority 2023, published 2025).
# Bridge positions count the residues as written; N and C are the ends. Square brackets hold non-standard residues; d marks the D form. Peptide text beside a SMILES is read from it. * marks the point of attachment. ξ: configuration not given here. DOTA = O=C(O)CN1CCN(CC(=O)O)CCN(CC(=O)*)CCN(CC(=O)O)CC1; Trp(5-F) = N[C@@H](Cc1c[nH]c2ccc(F)cc12)C(=O)O; Phe(2-CF3) = N[C@@H](Cc1ccccc1C(F)(F)F)C(=O)O; Trp(7-aza) = N[C@@H](Cc1c[nH]c2ncccc12)C(=O)O; Pro(trans-4-F) = O=C(O)[C@@H]1C[C@@H](F)CN1; Phe(4-F) = N[C@@H](Cc1ccc(F)cc1)C(=O)O; 1Nal = N[C@@H](Cc1cccc2ccccc12)C(=O)O; 2Nal = N[C@@H](Cc1ccc2ccccc2c1)C(=O)O; Nva(3-Et) = CCC(CC)[C@H](N)C(=O)O; β3hF = N[C@H](CC(=O)O)Cc1ccccc1; Chg = N[C@H](C(=O)O)C1CCCCC1; Tle = CC(C)(C)[C@H](N)C(=O)O; αMeP = C[C@@]1(C(=O)O)CCCN1; Octanoyl = CCCCCCCC(=O)*; Aze = O=C(O)[C@@H]1CCN1; Dab = NCC[C@H](N)C(=O)O; ξK = NCCCCC(N)C(=O)O
# Target: T1, human DLL3 (Homo sapiens, UniProt Q9NYJ7)
# T1 sequence (Q9NYJ7 27-618): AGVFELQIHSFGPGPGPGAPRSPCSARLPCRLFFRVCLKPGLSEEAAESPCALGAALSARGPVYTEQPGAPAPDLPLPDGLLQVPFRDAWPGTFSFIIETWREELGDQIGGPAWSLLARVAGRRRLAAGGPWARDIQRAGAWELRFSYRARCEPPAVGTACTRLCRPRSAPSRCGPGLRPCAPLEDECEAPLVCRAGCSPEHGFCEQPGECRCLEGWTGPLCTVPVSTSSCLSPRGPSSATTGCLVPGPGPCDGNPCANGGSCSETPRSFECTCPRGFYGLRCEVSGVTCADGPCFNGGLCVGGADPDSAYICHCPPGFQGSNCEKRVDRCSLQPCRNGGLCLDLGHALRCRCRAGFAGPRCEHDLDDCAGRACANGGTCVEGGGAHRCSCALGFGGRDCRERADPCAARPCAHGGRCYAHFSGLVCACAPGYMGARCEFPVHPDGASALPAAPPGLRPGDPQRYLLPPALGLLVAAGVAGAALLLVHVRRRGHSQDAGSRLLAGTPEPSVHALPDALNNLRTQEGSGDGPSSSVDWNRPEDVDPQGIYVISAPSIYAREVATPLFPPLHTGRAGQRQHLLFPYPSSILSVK
# Assay: Affinity determination by Surface Plasmon Resonance (SPR)
# Format: binding
# Conditions: 25° C., biotinylated human DLL3 immobilized on streptavidin sensor chip, 1:1 binding model; read-out: SPR KD
# Method: SPR studies were performed on the compounds disclosed herein using the following protocol.
# Biotinylated target ligand human DLL3 was immobilized on a streptavidin sensor chip. A reference surface was set up for nonspecific binding and refractive index changes. For analysis of the kinetics of interactions, varying concentrations of samples were injected at a flow rate of 100 μL/minute using running buffer containing 20 mM phosphate buffer with 2.7 mM KCl, 137 mM NaCl, 0.05% Surfactant P20 and 2% DMSO. Sensorgram curves were fitted with 1:1 binding model, and affinity and kinetic parameters were obtained using Biacore Insight evaluation 4.0. software.
row,Kd,Compound
1,< 1 nM,"CC(=O)N[C@@H](Cc1c[nH]c2ccccc12)C(=O)N[C@H](C(=O)N[C@@H](Cc1ccccc1C(F)(F)F)C(=O)N[C@H]1CSSC[C@@H](C(=O)N[C@@H](Cc2c[nH]c3ccccc23)C(=O)N2CCC[C@H]2C(=O)N[C@H](CCCCNC(=O)CN2CCN(CC(=O)O)CCN(CC(=O)O)CCN(CC(=O)O)CC2)C(N)=O)NC(=O)[C@H](CC(=O)O)NC(=O)[C@H](Cc2c[nH]cn2)NC(=O)[C@H](Cc2c[nH]c3ccccc23)NC(=O)[C@H](CC(N)=O)NC(=O)[C@H](CC(N)=O)NC1=O)[C@@H](C)O [compound 114, Ac-W-T-(2CF3-F)-C(3)-N-N-W-H-D-C(3)-W-P-[D-Lys(DOTA)]-NH2] (Ac-WT[Phe(2-CF3)]CNNWHDCWP[dK](DOTA)-NH2; disulfide 4-10)"
2,1 to 10 nM,"CC(=O)N[C@@H](Cc1c[nH]c2ccccc12)C(=O)N[C@H](C(=O)N[C@H](CC(=O)N[C@H]1CSSC[C@@H](C(=O)N[C@@H](Cc2c[nH]c3ccccc23)C(=O)N2CCC[C@H]2C(=O)N[C@H](CCCCNC(=O)CN2CCN(CC(=O)O)CCN(CC(=O)O)CCN(CC(=O)O)CC2)C(N)=O)NC(=O)[C@H](CC(=O)O)NC(=O)[C@H](Cc2c[nH]cn2)NC(=O)[C@H](Cc2c[nH]c3ccccc23)NC(=O)[C@H](CC(N)=O)NC(=O)[C@H](CC(N)=O)NC1=O)Cc1ccccc1)[C@@H](C)O [compound 115, Ac-W-T-(2PhEt-A)-C(3)-N-N-W-H-D-C(3)-W-P-[D-Lys(DOTA)]-NH2] (Ac-WT[β3hF]CNNWHDCWP[dK](DOTA)-NH2; disulfide 4-10)"
3,10 to 100 nM,"CC(=O)N[C@@H](Cc1c[nH]c2ccccc12)C(=O)N[C@H](C(=O)N[C@@H](Cc1ccc2ccccc2c1)C(=O)N[C@H]1CSSC[C@@H](C(=O)N[C@@H](Cc2c[nH]c3ccccc23)C(=O)N2CCC[C@H]2C(=O)N[C@H](CCCCNC(=O)CN2CCN(CC(=O)O)CCN(CC(=O)O)CCN(CC(=O)O)CC2)C(N)=O)NC(=O)[C@H](CC(=O)O)NC(=O)[C@H](Cc2c[nH]cn2)NC(=O)[C@H](Cc2c[nH]c3ccccc23)NC(=O)[C@H](CC(N)=O)NC(=O)[C@H](CC(N)=O)NC1=O)[C@@H](C)O [compound 116, Ac-W-T-(2Nal)-C(3)-N-N-W-H-D-C(3)-W-P-[D-Lys(DOTA)]-NH2] (Ac-WT[2Nal]CNNWHDCWP[dK](DOTA)-NH2; disulfide 4-10)"
4,10 to 100 nM,"CC(=O)N[C@@H](Cc1c[nH]c2ccc(F)cc12)C(=O)N[C@H](C(=O)N[C@H](C(=O)N[C@H]1CSSC[C@@H](C(=O)N[C@@H](Cc2c[nH]c3ncccc23)C(=O)N2CC[C@H]2C(=O)NC(CCCCNC(=O)CN2CCN(CC(=O)O)CCN(CC(=O)O)CCN(CC(=O)O)CC2)C(N)=O)NC(=O)[C@H](CC(=O)O)NC(=O)[C@H](Cc2cnc[nH]2)NC(=O)[C@H](Cc2ccc(F)cc2)NC(=O)[C@H](CC(N)=O)NC(=O)[C@H](CC(N)=O)NC1=O)C(C)(C)C)[C@@H](C)O (stereo partly drawn) [compound 121, Ac-(5Fluoro-W)-T-(Tbg)-C(3)-N-N-(4Fluoro-F)-H-D-C(3)-(7Aza-W)-(Aze)-[D-Lys(DOTA)]-NH2] (Ac-[Trp(5-F)]T[Tle]CNN[Phe(4-F)]HDC[Trp(7-aza)][Aze][ξK](DOTA)-NH2; disulfide 4-10)"
5,1 to 10 nM,"CCC(CC)[C@H](NC(=O)[C@@H](NC(=O)[C@H](Cc1c[nH]c2ccc(F)cc12)NC(C)=O)[C@@H](C)O)C(=O)N[C@H]1CSSC[C@@H](C(=O)N[C@@H](Cc2c[nH]c3ncccc23)C(=O)N2CC[C@H]2C(=O)NC(CCCCNC(=O)CN2CCN(CC(=O)O)CCN(CC(=O)O)CCN(CC(=O)O)CC2)C(N)=O)NC(=O)[C@H](CC(=O)O)NC(=O)[C@H](Cc2cnc[nH]2)NC(=O)[C@H](Cc2ccc(F)cc2)NC(=O)[C@H](CC(N)=O)NC(=O)[C@H](CC(N)=O)NC1=O (stereo partly drawn) [compound 122, Ac-(5Fluoro-W)-T-(Env)-C(3)-N-N-(4Fluoro-F)-H-D-C(3)-(7Aza-W)-(Aze)-[D-Lys(DOTA)]-NH2] (Ac-[Trp(5-F)]T[Nva(3-Et)]CNN[Phe(4-F)]HDC[Trp(7-aza)][Aze][ξK](DOTA)-NH2; disulfide 4-10)"

# The remaining lines, values behind:
row,Compound,Kd
1,"CCCCCCCC(=O)NCC[C@@H]1NC(=O)[C@H](Cc2c[nH]c3ccccc23)NC(=O)[C@H](CC(N)=O)NC(=O)[C@H](CC(N)=O)NC(=O)[C@@H](NC(=O)[C@@H](NC(=O)[C@@H](NC(=O)[C@H](Cc2c[nH]c3ccccc23)NC(C)=O)[C@@H](C)O)[C@@H](C)CC)CSSC[C@@H](C(=O)N[C@@H](Cc2c[nH]c3ccccc23)C(=O)N2CCC[C@H]2C(=O)N[C@H](CCCCNC(=O)CN2CCN(CC(=O)O)CCN(CC(=O)O)CCN(CC(=O)O)CC2)C(N)=O)NC(=O)[C@H](CC(=O)O)NC1=O [compound 93, Ac-W-T-I-C(3)-N-N-W-(DAB-4-NHCOC7H15)-D-C(3)-W-P-[D-Lys(DOTA)]-NH2] (Ac-WTICNNW[Dab](Octanoyl)DCWP[dK](DOTA)-NH2; disulfide 4-10)",10 to 100 nM
2,"CC[C@H](C)[C@H](NC(=O)[C@@H](NC(=O)[C@H](Cc1c[nH]c2ccc(F)cc12)NC(C)=O)[C@@H](C)O)C(=O)N[C@H]1CSSC[C@@H](C(=O)N[C@@H](Cc2c[nH]c3ccccc23)C(=O)N2CCC[C@H]2C(=O)N[C@H](CCCCNC(=O)CN2CCN(CC(=O)O)CCN(CC(=O)O)CCN(CC(=O)O)CC2)C(N)=O)NC(=O)[C@H](CC(=O)O)NC(=O)[C@H](Cc2c[nH]cn2)NC(=O)[C@H](Cc2c[nH]c3ccccc23)NC(=O)[C@H](CC(N)=O)NC(=O)[C@H](CC(N)=O)NC1=O [compound 100, Ac-(5Fluoro-W)-T-I-C(3)-N-N-W-H-D-C(3)-W-P-[D-Lys(DOTA)]-NH2] (Ac-[Trp(5-F)]TICNNWHDCWP[dK](DOTA)-NH2; disulfide 4-10)",< 1 nM
3,"CC[C@H](C)[C@H](NC(=O)[C@@H](NC(=O)[C@H](Cc1c[nH]c2ccccc12)NC(C)=O)[C@@H](C)O)C(=O)N[C@H]1CSSC[C@@H](C(=O)N[C@@H](Cc2c[nH]c3ccccc23)C(=O)N2CCC[C@@]2(C)C(=O)N[C@H](CCCCNC(=O)CN2CCN(CC(=O)O)CCN(CC(=O)O)CCN(CC(=O)O)CC2)C(N)=O)NC(=O)[C@H](CC(=O)O)NC(=O)[C@H](Cc2c[nH]cn2)NC(=O)[C@H](Cc2c[nH]c3ccccc23)NC(=O)[C@H](CC(N)=O)NC(=O)[C@H](CC(N)=O)NC1=O [compound 105, Ac-W-T-I-C(3)-N-N-W-H-D-C(3)-W-(aMe-P)-[D-Lys(DOTA)]-NH2] (Ac-WTICNNWHDCW[αMeP][dK](DOTA)-NH2; disulfide 4-10)",1 to 10 nM
4,"CC(=O)N[C@@H](Cc1c[nH]c2ccccc12)C(=O)N[C@H](C(=O)N[C@H](C(=O)N[C@H]1CSSC[C@@H](C(=O)N[C@@H](Cc2c[nH]c3ccccc23)C(=O)N2CCC[C@H]2C(=O)N[C@H](CCCCNC(=O)CN2CCN(CC(=O)O)CCN(CC(=O)O)CCN(CC(=O)O)CC2)C(N)=O)NC(=O)[C@H](CC(=O)O)NC(=O)[C@H](Cc2c[nH]cn2)NC(=O)[C@H](Cc2c[nH]c3ccccc23)NC(=O)[C@H](CC(N)=O)NC(=O)[C@H](CC(N)=O)NC1=O)C1CCCCC1)[C@@H](C)O [compound 106, Ac-W-T-(Chg)-C(3)-N-N-W-H-D-C(3)-W-P-[D-Lys(DOTA)]-NH2] (Ac-WT[Chg]CNNWHDCWP[dK](DOTA)-NH2; disulfide 4-10)",< 1 nM
5,"CC(=O)N[C@@H](Cc1c[nH]c2ccccc12)C(=O)N[C@H](C(=O)N[C@@H](Cc1cccc2ccccc12)C(=O)N[C@H]1CSSC[C@@H](C(=O)N[C@@H](Cc2c[nH]c3ccccc23)C(=O)N2CCC[C@H]2C(=O)N[C@H](CCCCNC(=O)CN2CCN(CC(=O)O)CCN(CC(=O)O)CCN(CC(=O)O)CC2)C(N)=O)NC(=O)[C@H](CC(=O)O)NC(=O)[C@H](Cc2c[nH]cn2)NC(=O)[C@H](Cc2c[nH]c3ccccc23)NC(=O)[C@H](CC(N)=O)NC(=O)[C@H](CC(N)=O)NC1=O)[C@@H](C)O [compound 107, Ac-W-T-(1Nal)-C(3)-N-N-W-H-D-C(3)-W-P-[D-Lys(DOTA)]-NH2] (Ac-WT[1Nal]CNNWHDCWP[dK](DOTA)-NH2; disulfide 4-10)",10 to 100 nM
6,"CC[C@H](C)[C@H](NC(=O)[C@@H](NC(=O)[C@H](Cc1c[nH]c2ccccc12)NC(C)=O)[C@@H](C)O)C(=O)N[C@H]1CSSC[C@@H](C(=O)N[C@@H](Cc2c[nH]c3ccccc23)C(=O)N2C[C@H](F)C[C@H]2C(=O)N[C@H](CCCCNC(=O)CN2CCN(CC(=O)O)CCN(CC(=O)O)CCN(CC(=O)O)CC2)C(N)=O)NC(=O)[C@H](CC(=O)O)NC(=O)[C@H](Cc2c[nH]cn2)NC(=O)[C@H](Cc2c[nH]c3ccccc23)NC(=O)[C@H](CC(N)=O)NC(=O)[C@H](CC(N)=O)NC1=O [compound 113, Ac-W-T-I-C(3)-N-N-W-H-D-C(3)-W-(trans4Fluoro-P)-[D-Lys(DOTA)]-NH2] (Ac-WTICNNWHDCW[Pro(trans-4-F)][dK](DOTA)-NH2; disulfide 4-10)",< 1 nM
